The values that follow come from patent EP4545091A1 (priority 2023, dated 2025).

Structures can show the parent of a compound that is named as a salt. Bridges are numbered along the chain shown (N, C = ends). Bounds are passed on as bounds.

Test [1] concerns SARS-CoV-2 Wuhan Hu-1 spike. Nature of the test: microbe, parasite or virus in culture. In kind it is cell-based. Conditions: Severe acute respiratory syndrome coronavirus 2, Caco-2, 48 h, read-out: IC50, SARS-CoV-2 spike-driven entry.
The next test has as its system VSV-G glycoprotein. In kind it is cell-based.
The test system of a further test is SARS-CoV-2 Omicron BA.5. In kind it is cell-based.
Another test deals with SARS-CoV-2 BA.5. In kind it is cell-based.
Test [2] has as its system SARS-CoV-2 Wuhan Hu-1 strain. Conditions: 48 h.
The next test relates to hCoV-NL63. Conditions: 48 h.
The subject of the next test is SARS-CoV spike. The note with it: 48 h.
A further test relates to MERS-CoV spike. Conditions: 48 h.
In test [3] the test system is Influenza A virus (IAV) H1N1. Conditions: virus (IAV, 48 h).

For orientation: IC50 means the point on the concentration scale where inhibition reaches its midpoint. On to `CN(C)C(=O)COC(=O)Cc1ccc(OC(=O)c2ccc(NC(=N)N)cc2)cc1` [Camostat mesylate], for which, in test [1], the IC50 stood at 70 nM.
In the case of “VAACNLPIVRGPCRAFIQLWAFDAVKGKCVLFPYGGCQGNGNKFYSEKECREYCGVPGDGD (disulfide 4-54, 13-37, 29-50) [Trypstatin]”, the “entry of VSV-G bearing control pseudoparticles” value with VSV-G glycoprotein was “did not affect entry”. The “viral titers two days post infection” value with SARS-CoV-2 Omicron BA.5 is “strongly reduced viral titers”. In addition, the “reduction of cumulative RNA copy production” value in the test with SARS-CoV-2 BA.5 is on record as above 99.9%. Besides, the “replication (RNA copies/ml in supernatants)” value in the test on SARS-CoV-2 BA.5 was “almost entirely prevented replication”. The IC50 in test [2] worked out at 26 nM; in the test on hCoV-NL63 it was 190 nM; in the test with SARS-CoV spike, 31 nM; in the test with MERS-CoV spike, 78 nM; in test [3] it was 222 nM.
